# Laboratory results taken from patent US20240374609A1, “NITROSAMINE IMPURITY, VARENICLINE PHARMACEUTICAL COMPOSITION CAPABLE OF REDUCING GENERATION OF NITROSAMINE IMPURITIES AND PREPARATION AND USE THEREOF” (VIWIT PHARMACEUTICALCO., LTD., priority 2021, published 2024).
# Where two headings read alike, the source gives them in different places.
# Tests used:
# [1] = tested on: Salmonella Typhimurium TA100; experiment: Ames test, plate incorporation method, TA100; assay type: cell-based
# Description: (§1) Salmonella Typhimurium TA97a, TA98, TA100, TA102, and TA1535 from MOLT OX, USA, were purchased from Shanghai Bioplus Biotech.
# (§2) Rat liver S9 from Shanghai Bioplus Biotech. Co., Ltd.
# (§3) The experiments were performed using the plate incorporation method.
# (§4) Dose selection: The experiments were performed using 5 mg, 2.5 mg, 1.25 mg, 0.625 mg, 0.3125 mg, and 0.15625 mg per dish.
# (§5) 0.1 ml of frozen bacterial solutions TA97a, TA98, TA100, TA102 and TA1535 were inoculated into the 10 ml nutrient broth mediums respectively, and cultured at 37° C. (100/min) for 10 h with shaking (100 times/min). 2.0 ml of top layer medium containing 0.5 mmol/L histidine −0.5 mmol/L biotin was dispensed into test tubes, sterilized by 0.103 MPa for 20 min, and kept in a water bath at 50° C. Then, 0.1 ml of the test substance solution, 0.5 ml of the S9 mixture (when metabolic activation was required) and 0.1 ml of the bacterial solution were added into each tube successively, mixed sufficiently, and poured into the bottom layer agar plates quickly. Then, the plates were turned to distribute even. After being placed horizontally for condensation and solidification, the plates were inverted and incubated in an incubator at 37° C. for 48 h, and the number of reverse mutation colonies per dish was counted. Three parallel plates of each dose were made, containing the spontaneous reverse mutation group, the solvent control group and the positive control group.
# (§6) The data were expressed as means±standards deviation (x±s), and SPSS 19.0 was used for calculation of data analysis.
# (§7) If the test substance tested by the above test strain is negative both with and without S9, then the test substance is determined to be mutagenic negative.
# Tetranychus cinnabarinus = experiment: Leaf-disc spraying method, insecticidal activity; assay type: in vivo; conditions: 500 mg/L, spray 2.5 mL, investigated after 24 h, blank control 0%, read-out: mortality rate
# Description: The bactericidal or insecticidal activity of the nitrosamine impurity compound P08 was determined according to the existing technical standards or specifications (e.g., Chinese agricultural industry standard NY/T 1156.4-2006, pesticides guidelines for laboratory bioactivity tests, bactericide, part 4: potted plant test for fungicide control of powdery mildew on wheat; Chinese agricultural industry standard NY/T 1156.5-2006, pesticides guidelines for laboratory bioactivity tests, bactericide, part 5: detached leaf test for fungicide inhibition of Rhizoctonia solani on faba bean; Chinese agricultural industry standard […], pesticides guidelines for laboratory bioactivity tests, insecticide, part 6: the immersion test for insecticide activity; Chinese agricultural industry standard NY/T 1154.9-2008, pesticides guidelines for laboratory bioactivity tests, insecticide, part 9: spraying method).
# According to the Chinese agricultural industry standard NYT 1154.13-2008, pesticides guidelines for laboratory bioactivity tests, insecticide, part 13: leaf-disc spraying method, the Tetranychus cinnabarinus were inoculated on a leaf-disc of faba bean as the biological test materials. […]
# [2] = tested on: Salmonella Typhimurium TA1535; assay type: cell-based
# Description: Salmonella Typhimurium TA97a, TA98, TA100, TA102, and TA1535 from MOLT OX, USA, were purchased from Shanghai Bioplus Biotech. Co., Ltd. The test was carried out using Salmonella typhimurium strains that were identified as meeting the requirements.
# as §2, §3, §4
# Test substance preparation: nitrosamine impurity compound P08 was prepared to a solution of 50 mg/ml with dimethyl-sulfoxide, and diluted with dimethyl-sulfoxide to give the solutions of 25 mg/ml, 12.5 mg/ml, 6.25 mg/ml, 3.125 mg/ml, and 1.5625 mg/ml successively.
# as §5, §6, §7
# [3] = tested on: Salmonella Typhimurium TA97a; experiment: Ames test, plate incorporation method, TA97a; assay type: cell-based
# Description: as §1, §2, §3, §4, §5, §6, §7
# [4] = Stability of solutions (control solution and sample solution at room temperature); assay type: physicochemical
# Description: Control stock solution: 7.5 mg of the nitrosamine compound P08 (purity≥98%) was weighed into a 100 ml volumetric flask, dissolved and diluted with acetonitrile to volume (volumetric solution 1A). 1.0 mL of the volumetric solution 1A was added into a 100 ml volumetric flask, and diluted with acetonitrile to volume (volumetric solution 1B). 1.0 mL of the volumetric solution 1B was added into a 20 ml volumetric flask, and diluted with acetonitrile to volume to obtain the control stock solution.
# Control solution: 1.0 mL of the control stock solution was added into a 10 ml volumetric flask, and diluted with acetonitrile to volume to obtain the control solution.
# Sample solution: 10 varenicline tartrate tablets were placed in a 10 ml volumetric flask, added with 3 mL of purified water and 3 mL of acetonitrile, sonicated for 30s, then diluted with acetonitrile to volume and mixed evenly.
# The control solution and the sample solution were placed at room temperature, then injected for analysis at intervals of 0, 2, 4, 6, 8, 10, 12 hours, and the peak area ratio of each time point to the zero point (i.e., peak area change rate) was calculated.
structure (smiles),measurement,setting,value
O=NN1CC2CC(C1)c1cc3nccnc3cc12 [P08],number of reverse mutation colonies per dish (x ± s),"[1]; TA100, +S9, 156.25 μg/dish",225 ± 9
same,number of reverse mutation colonies per dish (x ± s),"[1]; TA100, +S9, 312.5 μg/dish",234 ± 6
same,number of reverse mutation colonies per dish (x ± s),"[1]; TA100, +S9, 625 μg/dish",271 ± 11
same,number of reverse mutation colonies per dish (x ± s),"[1]; TA100, +S9, 1250 μg/dish",287 ± 13
same,number of reverse mutation colonies per dish (x ± s),"[1]; TA100, +S9, 2500 μg/dish",364 ± 19
same,number of reverse mutation colonies per dish (x ± s),"[1]; TA100, +S9, 5000 μg/dish",378 ± 18
same,number of reverse mutation colonies per dish (x ± s),"[1]; TA100, −S9, 156.25 μg/dish",218 ± 20
same,number of reverse mutation colonies per dish (x ± s),"[1]; TA100, −S9, 312.5 μg/dish",234 ± 31
same,number of reverse mutation colonies per dish (x ± s),"[1]; TA100, −S9, 625 μg/dish",224 ± 3
same,number of reverse mutation colonies per dish (x ± s),"[1]; TA100, −S9, 1250 μg/dish",220 ± 10
same,number of reverse mutation colonies per dish (x ± s),"[1]; TA100, −S9, 2500 μg/dish",193 ± 25
same,number of reverse mutation colonies per dish (x ± s),"[1]; TA100, −S9, 5000 μg/dish",206 ± 25
same,mortality at 500 µg/mL,Tetranychus cinnabarinus,19.6%
same,number of reverse mutation colonies per dish (x ± s),"[2]; TA1535, +S9, 156.25 μg/dish",21 ± 0
same,number of reverse mutation colonies per dish (x ± s),"[2]; TA1535, +S9, 312.5 μg/dish",20 ± 3
same,number of reverse mutation colonies per dish (x ± s),"[2]; TA1535, +S9, 625 μg/dish",35 ± 7
same,number of reverse mutation colonies per dish (x ± s),"[2]; TA1535, +S9, 1250 μg/dish",34 ± 3
same,number of reverse mutation colonies per dish (x ± s),"[2]; TA1535, +S9, 2500 μg/dish",38 ± 5
same,number of reverse mutation colonies per dish (x ± s),"[2]; TA1535, +S9, 5000 μg/dish",46 ± 6
same,number of colonies relative to that of the solvent control,"[2]; TA1535, no S9, 625 μg/dish",more than twice
same,number of colonies relative to that of the solvent control,"[2]; TA1535, with S9, 5000, 2500, 1250 and 625 μg/dish, dose-response relationship",more than twice
same,number of reverse mutation colonies per dish (x ± s),"[2]; TA1535, −S9, 156.25 μg/dish",23 ± 2
same,number of reverse mutation colonies per dish (x ± s),"[2]; TA1535, −S9, 312.5 μg/dish",36 ± 1
same,number of reverse mutation colonies per dish (x ± s),"[2]; TA1535, −S9, 625 μg/dish",42 ± 4
same,number of reverse mutation colonies per dish (x ± s),"[2]; TA1535, −S9, 1250 μg/dish",18 ± 2
same,number of reverse mutation colonies per dish (x ± s),"[2]; TA1535, −S9, 2500 μg/dish",28 ± 2
same,number of reverse mutation colonies per dish (x ± s),"[2]; TA1535, −S9, 5000 μg/dish",20 ± 2
same,number of reverse mutation colonies per dish (x ± s),"[3]; +S9, 156.25 μg/dish",209 ± 16
same,number of reverse mutation colonies per dish (x ± s),"[3]; +S9, 312.5 μg/dish",248 ± 13
same,number of reverse mutation colonies per dish (x ± s),"[3]; +S9, 625 μg/dish",242 ± 17
same,number of reverse mutation colonies per dish (x ± s),"[3]; +S9, 1250 μg/dish",279 ± 5
same,number of reverse mutation colonies per dish (x ± s),"[3]; +S9, 2500 μg/dish",297 ± 8
same,number of reverse mutation colonies per dish (x ± s),"[3]; +S9, 5000 μg/dish",310 ± 19
same,number of reverse mutation colonies per dish (x ± s),"[3]; −S9, 156.25 μg/dish",158 ± 11
same,number of reverse mutation colonies per dish (x ± s),"[3]; −S9, 312.5 μg/dish",175 ± 6
same,number of reverse mutation colonies per dish (x ± s),"[3]; −S9, 625 μg/dish",175 ± 12
same,number of reverse mutation colonies per dish (x ± s),"[3]; −S9, 1250 μg/dish",160 ± 15
same,number of reverse mutation colonies per dish (x ± s),"[3]; −S9, 2500 μg/dish",165 ± 10
same,number of reverse mutation colonies per dish (x ± s),"[3]; −S9, 5000 μg/dish",159 ± 5
same,peak area change rate within 12 hours,[4]; control solution (acetonitrile),< 12%
same,peak area change rate within 12 hours,[4]; sample solution (tablets in water/acetonitrile),< 3.5%
